US9745304B2, “Amidoimidazopyridazines as MKNK-1 kinase inhibitors” (BAYER PHARMA AKTIENGESELLSCHAFT, priority 2013, dated 2017)

Assays:
[1] = target: human full-length MKNK1 (GST fusion, T344D) (Homo sapiens (Human), UniProt Q9BUB5, T344D); experiment: MKNK1 kinase high ATP assay (TR-FRET, 2 mM ATP); assay type: biochemical; conditions: 15 min preincubation
Experimental: MKNK1 Kinase High ATP Assay
MKNK1-inhibitory activity at high ATP of compounds of the present invention after their preincubation with MKNK1 was quantified employing the TR-FRET-based MKNK1 high ATP assay as described in the following paragraphs.
As substrate for the kinase reaction the biotinylated peptide biotin-Ahx-[…] (C-terminus in amide form) was used, which can be purchased e.g. from the company Biosyntan (Berlin-Buch, Germany).
(§1) For the assay 50 nL of a 100 fold concentrated solution of the test compound in DMSO was pipetted into a black low volume 384 well microtiter plate (Greiner Bio-One, Frickenhausen, Germany), 2 μL of a solution of MKNK1 in aqueous assay buffer [50 mM HEPES pH 7.5, 5 mM magnesium chloride, 1.0 mM dithiothreitol, 0.005% (v/v) Nonidet-P40 (Sigma)] was added and the mixture was incubated for 15 min at 22° C. to allow pre-binding of the test compounds to the enzyme before the start of the kinase reaction. Then the kinase reaction was started by the addition of 3 μL of a solution of adenosine-tri-phosphate (ATP, 3.3 mM=>final conc. in the 5 μL assay volume is 2 mM) and substrate (0.1 μM=>final conc. in the 5 μL assay volume is 0.06 μM) in assay buffer and the resulting mixture was incubated for a reaction time of 30 min at 22° C. The concentration of MKNK1 was adjusted depending of the activity of the enzyme lot and was chosen appropriate to have the assay in the linear range, typical concentrations were in the range of 0.003 μg/mL. The reaction was stopped by the addition of 5 μL of a solution of TR-FRET detection reagents (5 nM streptavidine-XL665 [Cisbio Bioassays, Codolet, France] and 1 nM anti-ribosomal protein S6 (pSer236)-antibody from Invitrogen [#44921G] and 1 nM LANCE EU-W1024 labeled ProteinG [Perkin-Elmer, product no. AD0071]) in an aqueous EDTA-solution (100 mM EDTA, 0.1% (w/v) bovine serum albumin in 50 mM HEPES pH 7.5).
(§2) The resulting mixture was incubated for 1 h at 22° C. to allow the formation of complex between the phosphorylated biotinylated peptide and the detection reagents. Subsequently the amount of phosphorylated substrate was evaluated by measurement of the resonance energy transfer from the Eu-chelate to the streptavidine-XL. Therefore, the fluorescence emissions at 620 nm and 665 nm after excitation at 350 nm were measured in a TR-FRET reader, e.g. a Rubystar (BMG Labtechnologies, Offenburg, Germany) or a Viewlux (Perkin-Elmer). The ratio of the emissions at 665 nm and at 622 nm was taken as the measure for the amount of phosphorylated substrate.

[2] = target: human full-lengt MKNK1 (GST fusion, T344D) (Homo sapiens (Human), UniProt Q9BUB5, T344D); experiment: MKNK1 kinase assay (TR-FRET, 10 μM ATP); assay type: biochemical; conditions: 15 min preincubation
Experimental: MKNK1-inhibitory activity of compounds of the present invention was quantified employing the MKNK1 TR-FRET assay as described in the following paragraphs.
As substrate for the kinase reaction the biotinylated peptide biotin-Ahx-[…] (C-terminus in amide form) was used which can be purchased e.g. form the company Biosyntan (Berlin-Buch, Germany).
as §1, with “Then the kinase reaction was started by the addition of 3 μL of a solution of adenosine-tri-phosphate (ATP, 3.3 mM=>final conc. in the 5 μL assay volume is 2 mM) and substrate (0.1 μM=>final conc. in the 5 μL assay volume is 0.06 μM) in assay buffer and the resulting mixture was incubated for a reaction time of 30 min at 22° C.” left out, “0.05 μg/ml.” for “0.003 μg/mL.”
as §2

Chain of human full-lengt MKNK1 (GST fusion, T344D) (Q9BUB5 other isoform, or with tags, fused parts or gaps T344D): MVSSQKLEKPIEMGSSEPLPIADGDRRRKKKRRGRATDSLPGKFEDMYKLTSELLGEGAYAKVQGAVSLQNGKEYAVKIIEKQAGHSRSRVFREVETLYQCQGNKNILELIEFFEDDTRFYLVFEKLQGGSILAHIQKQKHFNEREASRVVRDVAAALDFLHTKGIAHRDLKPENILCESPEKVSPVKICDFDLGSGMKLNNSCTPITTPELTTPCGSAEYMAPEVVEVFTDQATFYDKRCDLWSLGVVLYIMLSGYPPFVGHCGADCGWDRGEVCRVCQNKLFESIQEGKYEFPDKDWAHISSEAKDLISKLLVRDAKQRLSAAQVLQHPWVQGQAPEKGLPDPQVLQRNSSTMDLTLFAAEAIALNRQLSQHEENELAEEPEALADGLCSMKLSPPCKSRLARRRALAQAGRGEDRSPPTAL
Chain of human full-length MKNK1 (GST fusion, T344D) (Q9BUB5 other isoform, or with tags, fused parts or gaps T344D): as above

`O=C(Cc1ccccc1)Nc1ccc2ncc(-c3cc4ccccc4o3)n2n1` [Example 1, N-[3-(1-Benzofuran-2-yl)imidazo[1,2-b]pyridazin-6-yl]-2-phenylacetamide] was tested, and the IC50 [1] was 18 nM and the IC50 [2] was 8 nM.
`O=C(Nc1ccc2ncc(-c3cc4ccccc4o3)n2n1)C(O)c1ccccc1` (stereo not drawn) [Example 2, N-[3-(1-Benzofuran-2-yl)imidazo[1,2-b]pyridazin-6-yl]-2-hydroxy-2-phenylacetamide] showed an IC50 [1] of 18 nM and an IC50 [2] of 7 nM.
Work on `O=C(Nc1ccc2ncc(-c3cc4ccccc4o3)n2n1)C(O)c1cccnc1` (stereo not drawn) [Example 3, N-[3-(1-Benzofuran-2-yl)imidazo[1,2-b]pyridazin-6-yl]-2-hydroxy-2-(pyridin-3-yl)acetamide] yielded an IC50 [1] of 11 nM and an IC50 [2] of 3 nM.
Work on `O=C(Nc1ccc2ncc(-c3cc4ccccc4o3)n2n1)C(O)C1CCCCC1` (stereo not drawn) [Example 4, N-[3-(1-Benzofuran-2-yl)imidazo[1,2-b]pyridazin-6-yl]-2-cyclohexyl-2-hydroxyacetamide] yielded an IC50 [1] of 10 nM and an IC50 [2] of 7 nM.
Work on `O=C(Cc1ccccn1)Nc1ccc2ncc(-c3cc4ccccc4o3)n2n1` [Example 6, N-[3-(1-Benzofuran-2-yl)imidazo[1,2-b]pyridazin-6-yl]-2-(pyridin-2-yl)acetamide] yielded an IC50 [1] of 12 nM and an IC50 [2] of 7 nM.
Work on `O=C(Cc1cccc(F)c1)Nc1ccc2ncc(-c3cc4ccccc4o3)n2n1` [Example 8, N-[3-(1-Benzofuran-2-yl)imidazo[1,2-b]pyridazin-6-yl]-2-(3-fluorophenyl)-acetamide] yielded an IC50 [1] of 23 nM and an IC50 [2] of 10 nM.
`O=C(CCc1cccnc1)Nc1ccc2ncc(-c3cc4ccccc4o3)n2n1` [Example 9, N-[3-(1-Benzofuran-2-yl)imidazo[1,2-b]pyridazin-6-yl]-3-(pyridin-3-yl)propanamide] gave an IC50 [1] of 7 nM and an IC50 [2] of 3 nM.
With `O=C(Nc1ccc2ncc(-c3cc4ccccc4o3)n2n1)c1cc(=O)[nH]c(=O)[nH]1` [Example 10, N-[3-(1-Benzofuran-2-yl)imidazo[1,2-b]pyridazin-6-yl]-2,6-dioxo-1,2,3,6-tetrahydropyrimidine-4-carboxamide] the IC50 [1] was 36 nM and the IC50 [2] was 36 nM.
With `O=C1CC[C@@H](CO)N1c1ccc2ncc(-c3cc4ccccc4o3)n2n1` [Example 11, (5S)-1-[3-(1-Benzofuran-2-yl)imidazo[1,2-b]pyridazin-6-yl]-5-(hydroxymethyl)-pyrrolidin-2-one] the IC50 [1] was 7 nM and the IC50 [2] was 3 nM.
`C[C@@H](O)C(=O)Nc1ccc2ncc(-c3cc4ccccc4o3)n2n1` [Example 13, (2R)—N-[3-(1-Benzofuran-2-yl)imidazo[1,2-b]pyridazin-6-yl]-2-hydroxypropanamide] showed an IC50 [1] of 12 nM and an IC50 [2] of 4 nM.
`C[C@H](O)C(=O)Nc1ccc2ncc(-c3cc4ccccc4o3)n2n1` [Example 14, (2S)—N-[3-(1-Benzofuran-2-yl)imidazo[1,2-b]pyridazin-6-yl]-2-hydroxypropanamide] gave an IC50 [1] of 20 nM and an IC50 [2] of 8 nM.
For `COc1nccc2oc(-c3cnc4ccc(NC(=O)[C@@H](C)O)nn34)cc12` [Example 15, (2R)-2-hydroxy-N-[3-(4-methoxyfuro[3,2-c]pyridin-2-yl)imidazo[1,2-b]-pyridazin-6-yl]propanamide], the IC50 [1] was 7 nM and the IC50 [2] was 3 nM.
`COc1nccc2oc(-c3cnc4ccc(NC(=O)[C@H](C)O)nn34)cc12` [Example 16, (2S)-2-hydroxy-N-[3-(4-methoxyfuro[3,2-c]pyridin-2-yl)imidazo[1,2-b]pyridazin-6-yl]propanamide] showed an IC50 [1] of 13 nM and an IC50 [2] of 10 nM.
With `CC(C)CC(=O)Nc1ccc2ncc(-c3cc4ccccc4o3)n2n1` [Example 17, N-[3-(1-Benzofuran-2-yl)imidazo[1,2-b]pyridazin-6-yl]-3-methylbutanamide] the IC50 [1] was 7 nM and the IC50 [2] was 4 nM.
With `O=C(CCc1c[nH]cn1)Nc1ccc2ncc(-c3cc4ccccc4o3)n2n1` [Example 19, N-[3-(1-Benzofuran-2-yl)imidazo[1,2-b]pyridazin-6-yl]-3-(1H-imidazol-4-yl)-propanamide] the IC50 [1] was 6 nM and the IC50 [2] was 8 nM.
`N#Cc1cccc(CC(=O)Nc2ccc3ncc(-c4cc5ccccc5o4)n3n2)c1` [Example 21, N-[3-(1-benzofuran-2-yl)imidazo[1,2-b]pyridazin-6-yl]-2-(3-cyanophenyl)acetamide] showed an IC50 [1] of 11 nM and an IC50 [2] of 14 nM.
Work on `O=C(CCC1CC1)Nc1ccc2ncc(-c3cc4ccccc4o3)n2n1` [Example 22, N-[3-(1-benzofuran-2-yl)imidazo[1,2-b]pyridazin-6-yl]-3-cyclopropylpropanamide] yielded an IC50 [1] of 23 nM and an IC50 [2] of 13 nM.
`CCN(CC)CCC(=O)Nc1ccc2ncc(-c3cc4ccccc4o3)n2n1` [Example 23, N-[3-(1-benzofuran-2-yl)imidazo[1,2-b]pyridazin-6-yl]-N^3,N^3-diethyl-β-alaninamide] gave an IC50 [1] of 13 nM and an IC50 [2] of 9 nM.
Molecule `N#CC1(C(=O)Nc2ccc3ncc(-c4cc5ccccc5o4)n3n2)CC1` [Example 24, N-[3-(1-benzofuran-2-yl)imidazo[1,2-b]pyridazin-6-yl]-1-cyanocyclopropane carboxamide] has an IC50 [1] of 36 nM and an IC50 [2] of 25 nM.
`Cc1cccc(CCC(=O)Nc2ccc3ncc(-c4cc5ccccc5o4)n3n2)c1` [Example 31, N-[3-(1-benzofuran-2-yl)imidazo[1,2-b]pyridazin-6-yl]-3-(3-methylphenyl)propanamide] was tested, and the IC50 [1] was 62 nM and the IC50 [2] was 67 nM.
`CC1CCN(CC(=O)Nc2ccc3ncc(-c4cc5ccccc5o4)n3n2)CC1` [Example 32, N-[3-(1-benzofuran-2-yl)imidazo[1,2-b]pyridazin-6-yl]-2-(4-methylpiperidin-1-yl)acetamide] gave an IC50 [1] of 18 nM and an IC50 [2] of 17 nM.
